According to the supplement of paper PMC11451515:

Columns and labels:
Conditions in all cases: 48 h
SEM cells [1] = experiment: AUC of viability dose-response curve (% viability x log10 dose units); higher = less sensitive
Summary of the method: (§1)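 Leukemia cells adapted to each medium were seeded in 1536-well plates (500 or 1000 cells/well). They were dosed with library compounds in DMSO at 11 threefold doses, 47 μM to 0.79 nM, for 48 h at 37°C. CellTiter-Glo One luminescence was normalised per plate to DMSO and cell-free wells. Area under the curve was integrated by trapezoidal rule over log10 doses on a four-parameter log-logistic fit; curves exceeding full viability were scaled and curves failing quality control removed.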

P12-Ichikawa [2] = experiment: as above
Summary of the method: as §1

NOMO1 [3] = experiment: as above
Summary of the method: as §1

SEM cells [4] = experiment: cell viability relative to DMSO control; higher = less cytotoxic
Summary of the method: (§2)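 Viability is expressed as a percentage of DMSO wells within each plate, and cell-free wells serve as background. Seeding densities in the 1536-well plates (5 μl) were 500 cells/well for NOMO1 or SEM leukemia cells and 1000 cells/well for P12-Ichikawa. Each line was adapted for at least four passages in each medium. Library compounds in DMSO were pin-dosed at 47 μM to 0.79 nM (11 points, threefold), and CellTiter-Glo One luminescence was read after 48 h at 37°C.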

P12-Ichikawa [5] = experiment: as above
Summary of the method: as §2

NOMO1 [6] = experiment: as above
Summary of the method: as §2

NCCCCNCCCN
AUC of viability dose-response curve
Conditions | NOMO1 [3] | P12-Ichikawa [2] | SEM cells [1]
HPLM + 10% dialyzed FBS | 438 | 458 | 373
RPMI 5 mM glucose + 10% FBS | 460 | 434 | 427
RPMI 5 mM glucose + 10% dialyzed FBS | 460 | 445 | 388

cell viability [%]
Conditions | NOMO1 [6] | P12-Ichikawa [5] | SEM cells [4]
HPLM + 10% dialyzed FBS, 0.000781 µM | 110 | 108 | 74.8
HPLM + 10% dialyzed FBS, 0.00234 µM | 101 | 108 | 80.2
HPLM + 10% dialyzed FBS, 0.00702 µM | 119 | 115 | 75.4
HPLM + 10% dialyzed FBS, 0.0211 µM | 112 | 108 | 89.7
HPLM + 10% dialyzed FBS, 0.0632 µM | 109 | 110 | 97.8
HPLM + 10% dialyzed FBS, 0.19 µM | 95.3 | 121 | 99.5
HPLM + 10% dialyzed FBS, 0.569 µM | 116 | 115 | 87.6
HPLM + 10% dialyzed FBS, 1.71 µM | 121 | 116 | 99.2
HPLM + 10% dialyzed FBS, 5.12 µM | 105 | 109 | 101
HPLM + 10% dialyzed FBS, 15.4 µM | 67.1 | 104 | 19.7
HPLM + 10% dialyzed FBS, 46.1 µM | 26.7 | 41.4 | 3.89
RPMI 5 mM glucose + 10% FBS, 0.000781 µM | 108 | 110 | 107
RPMI 5 mM glucose + 10% FBS, 0.00234 µM | 99.6 | 109 | 73.5
RPMI 5 mM glucose + 10% FBS, 0.00702 µM | 98.2 | 113 | 97
RPMI 5 mM glucose + 10% FBS, 0.0211 µM | 104 | 114 | 93.9
RPMI 5 mM glucose + 10% FBS, 0.0632 µM | 99.4 | 114 | 108
RPMI 5 mM glucose + 10% FBS, 0.19 µM | 104 | 118 | 110
RPMI 5 mM glucose + 10% FBS, 0.569 µM | 94.8 | 123 | 99.1
RPMI 5 mM glucose + 10% FBS, 1.71 µM | 99.1 | 118 | 106
RPMI 5 mM glucose + 10% FBS, 5.12 µM | 105 | 105 | 106
RPMI 5 mM glucose + 10% FBS, 15.4 µM | 103 | 73.7 | 43.5
RPMI 5 mM glucose + 10% FBS, 46.1 µM | 27.7 | 3.31 | 4.26
RPMI 5 mM glucose + 10% dialyzed FBS, 0.000781 µM | 107 | 101 | 88
RPMI 5 mM glucose + 10% dialyzed FBS, 0.00234 µM | 104 | 102 | 83.7
RPMI 5 mM glucose + 10% dialyzed FBS, 0.00702 µM | 111 | 98.4 | 94.2
RPMI 5 mM glucose + 10% dialyzed FBS, 0.0211 µM | 107 | 116 | 75.6
RPMI 5 mM glucose + 10% dialyzed FBS, 0.0632 µM | 107 | 104 | 106
RPMI 5 mM glucose + 10% dialyzed FBS, 0.19 µM | 105 | 111 | 103
RPMI 5 mM glucose + 10% dialyzed FBS, 0.569 µM | 110 | 115 | 93.7
RPMI 5 mM glucose + 10% dialyzed FBS, 1.71 µM | 115 | 111 | 99.4
RPMI 5 mM glucose + 10% dialyzed FBS, 5.12 µM | 119 | 115 | 91.9
RPMI 5 mM glucose + 10% dialyzed FBS, 15.4 µM | 109 | 87 | 21.4
RPMI 5 mM glucose + 10% dialyzed FBS, 46.1 µM | 35.4 | 6.5 | 4.65

COc1ccc2[nH]c([S+]([O-])Cc3ncc(C)c(OC)c3C)nc2c1 (stereo unspecified)
AUC of viability dose-response curve
Conditions | NOMO1 [3] | P12-Ichikawa [2] | SEM cells [1]
HPLM + 10% dialyzed FBS | 411 | 427 | 354
RPMI 5 mM glucose + 10% FBS | 434 | 398 | 411
RPMI 5 mM glucose + 10% dialyzed FBS | 418 | 363 | 392

cell viability [%]
Conditions | NOMO1 [6] | P12-Ichikawa [5] | SEM cells [4]
HPLM + 10% dialyzed FBS, 0.000781 µM | 89.2 | 82.5 | 83.2
HPLM + 10% dialyzed FBS, 0.00234 µM | 78.3 | 85.9 | 84.8
HPLM + 10% dialyzed FBS, 0.00702 µM | 90.9 | 92.3 | 66.8
HPLM + 10% dialyzed FBS, 0.0211 µM | 88.4 | 90 | 87.9
HPLM + 10% dialyzed FBS, 0.0632 µM | 95.9 | 91.6 | 71.9
HPLM + 10% dialyzed FBS, 0.19 µM | 83.7 | 90 | 70.5
HPLM + 10% dialyzed FBS, 0.569 µM | 85.5 | 90.4 | 86.6
HPLM + 10% dialyzed FBS, 1.71 µM | 89.9 | 92 | 42.6
HPLM + 10% dialyzed FBS, 5.12 µM | 87.3 | 95.5 | 72.8
HPLM + 10% dialyzed FBS, 15.4 µM | 86.6 | 95.4 | 74.9
HPLM + 10% dialyzed FBS, 46.1 µM | 59.8 | 78.4 | 75.7
RPMI 5 mM glucose + 10% FBS, 0.000781 µM | 74.9 | 73.7 | 83.8
RPMI 5 mM glucose + 10% FBS, 0.00234 µM | 100 | 86.8 | 91
RPMI 5 mM glucose + 10% FBS, 0.00702 µM | 78.3 | 81.3 | 83.9
RPMI 5 mM glucose + 10% FBS, 0.0211 µM | 97 | 89.6 | 101
RPMI 5 mM glucose + 10% FBS, 0.0632 µM | 80.7 | 85.1 | 77.3
RPMI 5 mM glucose + 10% FBS, 0.19 µM | 92 | 78 | 100
RPMI 5 mM glucose + 10% FBS, 0.569 µM | 90 | 85.8 | 96.8
RPMI 5 mM glucose + 10% FBS, 1.71 µM | 100 | 91.9 | 63.8
RPMI 5 mM glucose + 10% FBS, 5.12 µM | 96.3 | 85.2 | 87.5
RPMI 5 mM glucose + 10% FBS, 15.4 µM | 93.5 | 84.9 | 87.1
RPMI 5 mM glucose + 10% FBS, 46.1 µM | 89.1 | 67.4 | 69.8
RPMI 5 mM glucose + 10% dialyzed FBS, 0.000781 µM | 70.7 | 79.2 | 81.4
RPMI 5 mM glucose + 10% dialyzed FBS, 0.00234 µM | 91.7 | 79.8 | 83.5
RPMI 5 mM glucose + 10% dialyzed FBS, 0.00702 µM | 68 | 78.2 | 77
RPMI 5 mM glucose + 10% dialyzed FBS, 0.0211 µM | 98.7 | 77 | 95.8
RPMI 5 mM glucose + 10% dialyzed FBS, 0.0632 µM | 93.4 | 76.8 | 76.7
RPMI 5 mM glucose + 10% dialyzed FBS, 0.19 µM | 95.6 | 75.1 | 86.8
RPMI 5 mM glucose + 10% dialyzed FBS, 0.569 µM | 87.8 | 76.7 | 105
RPMI 5 mM glucose + 10% dialyzed FBS, 1.71 µM | 97.9 | 76.4 | 69.7
RPMI 5 mM glucose + 10% dialyzed FBS, 5.12 µM | 86 | 70.6 | 76.3
RPMI 5 mM glucose + 10% dialyzed FBS, 15.4 µM | 91.1 | 79.6 | 83.6
RPMI 5 mM glucose + 10% dialyzed FBS, 46.1 µM | 82.3 | 66.6 | 68.3
